Marks after values point to notes of the source that are not given here.
How the values were obtained:
aberrant crypts (AC) = assay: Inhibition of DMH-induced aberrant crypt (AC) formation in colon; format: in vivo, Female CF1 mice; conditions: high dose 0.04 mmol/kg body weight, gavage, without DMH
Source text: Precancerous lesions called aberrant crypts (AC) are used as a marker for colon carcinogenesis. Mice and rats, when exposed to colon-specific carcinogen, develop preneoplastic changes in colon crypts which leads to malignancy through dysplasia-carcinoma sequence. […] McLellan et al., Cancer Res. 48:6183-6186 (1988); McLellan et al., Cancer Res. 48:2311-2315 (1988).
The effect of colon-specific carcinogenesis is typically seen in the induction of AC formation in less than two weeks. AC formation is dose dependent and can be quantitated without elaborate instrumentation. In view of the short time-frame required to get quantifiable results, this bio-assay is a useful prescreening tool for the evaluation of chemopreventative efficacy of compounds that are effective against colon cancer. The protocol for aberrant crypts is shown below:
Female CF1 mice, 3 weeks of age, were purchased from Harlan Sprague-Dawley, Indianapolis, 1N. They were housed, 5 mice per cage, in temperature and humidity-controlled animal quarters with 12 hours light/dark cycle and fed AIN 76A semipurified diet until the ent of the experiment. Water was given ad libitim. The animals were separated into experimental and control groups. The test compounds 0.03-0.04 mmol/kg body weight dissolved in 0.3 mL corn oil, were given by gavage one per day for 8 days. One hour after the inhibitors administration on the 4th and 8th days, 0.4 mg of DMH in 0.2 mL of 0.001 M EDTA, adjusted to pH 6.5 with sodium bicarbonate, was given by gavage. Starting on the 9th day, the inhibitors were given once every other day for an additional 3 weeks. This regimen of inhibitor administration ensures the coverage both the initiation and post initiation periods of carcinogen exposure.
At the end of the 3 week period, the animals were sacrificed and the colons removed. The starting and terminating weights of the animals were recorded. The procedures for the determination of aberrant crypts were those reported by Bird (Cancer Letters 37:147-151 (1987)). The mouse colon including the caecum was removed, rinsed with PBS, and opened longitudinally. The colon contents was removed by washing with PBS. The colon was spread mucosal side up on a piece of filter paper and fixed in buffered formalin overnight. It was then stained with 0.2% methylene blue in PBS for 60 min. The AC foci was read under light microscope. The AC are topographically distinguished by their increased size, increased pericryptal zone, and thicker and deeply stained epithelial lining compared to normal crypts. The number of foci and AC in the colorectal and caecal parts of the colon were recorded separately. The significance of the data was determined by the analysis of variance method. The significance of the incidence of aberrant crypts bearing animals was analyzed by the X^2 test. The aberrant crypts were examined histologically to verify the dysplastic nature of the changes in animals treated with carcinogens and those treated with carcinogens and inhibitors.

GSH = assay: Glutathione (GSH) concentration in tissues of treated mice, HPLC; format: in vivo, Female A/J mice; conditions: for Ratio Test/con (GSH): gavage; for GSH conc.: gavage in corn oil
Protocol: GSH was quantitated by modification of the procedure Siller-Cepeda et al. Plant Cell Physiol. 32:1179-1185 (1991). Aliquots of tissue homogenates were mixed with equal volumes of 20% PCA containing 2 mM BPDS. Vortex, centrifuge at 7800×g for 15 minutes at 4° C. and 250 μl supernatant transferred into a microfuge tube containing 25 μl of γ-glu-glu as internal standard. The samples were carboxymethylated with 25 μl of 100 mM iodoacetic acid dissolved in 0.2 mM m-cresol purple sodium salt solution. The pH of the solution was adjusted to 9-10 by adding 350 μl of KOH (2M)-KHCO3 (2.4 M) mixture and incubated in the dark for 15 minutes. After carboxymethylation, the samples were derivatized with 500 μl of 1% dinitrofluorobenzene (DNFB) and kept in the dark at 4° C. overnight. The samples were centrifuged at 13,000×g for 15 minutes, filtered through 0.2 μm filter, and were analyzed with a SHIMADZU two-pump gradient HPLC system. Samples were injected by a SHIMADZU SIL-10AV Autoinjector onto a Varian 3-aminopropyl MICROSORB-MV column (4.6×250 mm) operated at ambient temperature with a flow rate of 1 ml/min. Absorbance of the dinitrophenyl derivatives was monitored at 365 nm. The amount of GSH was calculated from a standard curve using γ-glu-glu as internal standard.

[1] = test system: UDP-Glucuronosyltransferase (UDP-GT); assay: UDP-glucuronosyltransferase (UDP-GT) activity in liver microsomes of treated mice, o-aminophenol substrate; format: in vivo, Female A/J mice; conditions: for Ratio Test/con (UDP-GT): gavage; for UDP-GT activity (column head prints GSH conc.): gavage in corn oil
Protocol: Microsomal samples were assayed for enzymatic conjugation by modifying the procedure of Zakim et al., Methods of Biochemical Analysis, ed. David Glick, 21:1-37, (1973). using o-aminophenol as the substrate. The complete assay solution contains, in a total volume of 500 μl, 0.25 M phosphate buffer (pH 7.6), 0.002 M o-aminophenol, 0.05 M UDPGA, 0.125 M magnesium chloride and 100 μl microsomes. The mixture was incubated for 30 minutes. Reactions were stopped by the addition of 500 μl of TCA-sodium phosphate reagent. The precipitated protein was removed, 100 μl of 0.05% sodium nitrite was added to 950 μl of the supernatent solution and allowed to stand for 5 minutes. 100 μl of 0.5% ammonium sulfamate was added, after 5 minutes. 100 μl of 0.12% N-(-1-naphthyl)ethylenediamine dihydrochloride was added and incubated for 2 hours in the dark; and the difference in the optical density between the blanks and the samples were recorded at 555 nm in a Beckman model DU65 UV-VIS spectrophotometer. The UDP-GT activity was calculated using the extinction coefficient 29 mM-1 cm-1 for the coupled product.

[2] = test system: Glutathione S-Transferase; assay: Glutathione S-transferase (GST) activity in tissue cytosol of treated mice, CDNB substrate; format: in vivo, Female A/J mice; conditions: for Ratio Test/con (GST): gavage; for GST act.: gavage in corn oil
Protocol: The activity of cytosolic was assayed according to the method of Habig et al. using 1-chloro-2,4-dinitrobenzene (CDNB) as the substrate. Habig et al, J. Biol. Chem. 249:7130-7139 (1974). The complete solution contains, in a total volume of 2.0 mL, 0.1 M phosphate buffer, pH 6.5, 5 mM glutathione, 1 mM CDNB, and 20 μL of the cytosol. The reaction was monitored at 340 nm in a Beckman Model DU65 UV-VIS spectrophotometer. Assays were performed at 30° C. Complete assay mixture without the cytosolic enzyme was used as the reference blank. Data as analyzed by the Student's “t” test and P values were obtained in comparison to the control.

[3] = liver, dose 0.02 mmol/Kg body weight
[4] = liver, dose 0.04 mmol/Kg body weight
[5] = small intestinal mucosa, dose 0.02 mmol/Kg body weight
[6] = small intestinal mucosa, dose 0.04 mmol/Kg body weight
[7] = colon, dose 0.02 mmol/Kg body weight
[8] = colon, dose 0.04 mmol/Kg body weight
[9] = forestomach, dose 0.02 mmol/Kg body weight
[10] = forestomach, dose 0.04 mmol/Kg body weight
[11] = lung, dose 0.02 mmol/Kg body weight
[12] = lung, dose 0.04 mmol/Kg body weight

[Se]=C=NCc1ccc(CN=C=[Se])s1 [(6) TDMISC, thienyl-2,5-di-methylene isoselenocyanate]
% animals (aberrant crypts (AC)): 0.0% | AC/Colon (aberrant crypts (AC)): 0.00 | AC/Foci (aberrant crypts (AC)): 0.00 | ACF/Colon (aberrant crypts (AC)): 0.00 | Total AC (aberrant crypts (AC)): 0 | Total ACF (aberrant crypts (AC)): 0 | Ratio Test/con (GSH) (GSH; [3]): 0.95 | GSH conc. (GSH; [3]): 3.38 ± 1.11 μmol/gm tissue weight | Ratio Test/con (GSH) (GSH; [4]): 1.49 | GSH conc. (GSH; [4]): 5.29 ± 1.09 μmol/gm tissue weight | Ratio Test/con (GSH) (GSH; [5]): 1.07 | GSH conc. (GSH; [5]): 2.26 ± 1.87 μmol/gm tissue weight | Ratio Test/con (GSH) (GSH; [6]): 1.76 | GSH conc. (GSH; [6]): 3.71 ± 0.31^d μmol/gm tissue weight | Ratio Test/con (UDP-GT) ([1]; dose 0.02 mmol/Kg body weight): 1.50 | UDP-GT activity (column head prints GSH conc.) ([1]; dose 0.02 mmol/Kg body weight): 6.08 ± 0.76 ^d nmol/min/mg protein | Ratio Test/con (UDP-GT) ([1]; dose 0.04 mmol/Kg body weight): 1.49 | UDP-GT activity (column head prints GSH conc.) ([1]; dose 0.04 mmol/Kg body weight): 7.98 ± 2.49 nmol/min/mg protein | Ratio Test/con (GST) [2, 7]: 1.12 | GST act. [2, 7]: 0.73 ± 0.026 ^g μmol/min mg protein | Ratio Test/con (GST) [2, 8]: 1.14 | GST act. [2, 8]: 0.74 ± 0.04 ^f μmol/min mg protein | Ratio Test/con (GST) [2, 9]: 0.93 | GST act. [2, 9]: 1.03 ± 0.20 μmol/min mg protein | Ratio Test/con (GST) [2, 10]: 1.11 | GST act. [2, 10]: 1.23 ± 0.35 μmol/min mg protein | Ratio Test/con (GST) [2, 3]: 1.90 | GST act. [2, 3]: 2.43 ± 0.46 ^e μmol/min mg protein | Ratio Test/con (GST) [2, 4]: 2.53 | GST act. [2, 4]: 3.24 ± 0.39 ^e μmol/min mg protein | Ratio Test/con (GST) [2, 11]: 1.29 | GST act. [2, 11]: 0.44 ± 0.04 ^f μmol/min mg protein | Ratio Test/con (GST) [2, 12]: 1.73 | GST act. [2, 12]: 0.59 ± 0.29 μmol/min mg protein | Ratio Test/con (GST) [2, 5]: 2.45 | GST act. [2, 5]: 0.54 ± 0.11 ^e μmol/min mg protein | Ratio Test/con (GST) [2, 6]: 2.41 | GST act. [2, 6]: 0.53 ± 0.03 ^c μmol/min mg protein

N#C[Se]C([Se]C#N)c1cccs1 [(1) TMSC, 2-thienyl methylene selenocyanate]
melting point: 48 to 50 °C

N#C[Se]Cc1ccc(C[Se]C#N)cc1 [p-XSC, 1,4-phenylenebis(methylene)selenocyanate, reference compound]
Ratio Test/con (GSH) (GSH; [4]): 0.99 | GSH conc. (GSH; [4]): 3.50 ± 0.75 μmol/gm tissue weight | Ratio Test/con (GSH) (GSH; [6]): 0.91 | GSH conc. (GSH; [6]): 1.93 ± 0.54 μmol/gm tissue weight | increase of GSH concentration (in words) (GSH; tissues of A/J mice): failed to induce a significant increase | Ratio Test/con (UDP-GT) ([1]; dose 0.04 mmol/Kg body weight): 1.88 | UDP-GT activity (column head prints GSH conc.) ([1]; dose 0.04 mmol/Kg body weight): 7.60 ± 2.47 ^d nmol/min/mg protein | Ratio Test/con (GST) [2, 7]: 1.10 | GST act. [2, 7]: 0.72 ± 0.07 μmol/min mg protein | Ratio Test/con (GST) [2, 9]: 0.88 | GST act. [2, 9]: 0.98 ± 0.27 μmol/min mg protein | Ratio Test/con (GST) [2, 3]: 1.28 | GST act. [2, 3]: 1.64 ± 0.45 μmol/min mg protein | Ratio Test/con (GST) [2, 11]: 1.41 | GST act. [2, 11]: 0.48 ± 0.13 μmol/min mg protein | Ratio Test/con (GST) [2, 5]: 0.95 | GST act. [2, 5]: 0.21 ± 0.06 μmol/min mg protein | induction of GST activity (in words) ([2]; tissues of A/J mice): failed to induce a significant increase
